Measured values reported in PMC9324262, “Selective CDK9 Inhibition by Natural Compound Toyocamycin in Cancer Cells” (Cancers, 2022).

Assays:
RNA-Pol II Ser2-P = experiment: Western blot, RNA Pol II and phospho-Pol II Ser2; type: cell-based, human; conditions: 6 h
Protocol: YB5 cells were harvested in 50 mM Tris-HCl, 1% NP-40, 1 mM EDTA, 1 mM EGTA, 0.25% sodium deoxycholate, 150 mM NaCl, 50 mM sodium fluoride, and 1X Complete protease cocktail (Roche, Basel, Switzerland) with 1 mM PMSF. The total protein concentration was measured in all samples by standard BCA protocol (Pierce-23225, Thermo Scientific, Waltham, MA, USA) to ensure that an equal amount of protein was added to each sample. Protein extracts were run on 12% SDS–PAGE precast gels (Bio-Rad, Hercules, CA, USA, 345-0118). Proteins were transferred to polyvinylidene difluoride (PVDF) membranes in 10 mmol/L CAPS (pH-11) containing 10% methanol and detected by using specific primary antibodies, horseradish peroxidase–conjugated secondary antibodies (GE Healthcare, Chicago, IL, USA), and an enhanced chemiluminescence reagent (Pierce). PVDF membranes were incubated with specific primary antibodies (actin—A5441, Sigma, St. Louis, MO, USA; HA-tagged—H9608, Sigma; FLAG-tagged—F3165, Sigma). FLAG- and HA-tagged CDK9 plasmids were a generous gift from Dr Bassel E. Sawaya (Temple University). For CDK9 target modulation, HCT116 colon cancer cells were treated with toyocamycin or known CDK9 inhibitor BAY1251152 (Selleckchem, Houston, TX, USA). Whole cell extracts were obtained by lysing cells with 25 mM Tris (pH 7.3) and 1% sodium dodecyl sulfate (SDS). After sonication, total protein concentrations were determined using Bradford protein assay. The following primary antibodies were used to investigate the effect of CDK9 inhibition: Pol II against the N-term region (sc-55492, Santa Cruz, Dallas, TX, USA), Pol II against the C-term region (39097, Active motif, Carlsbad, CA, USA), Pol II phospho CTD ser2 (14-9802-82, Invitrogen, Waltham, MA, USA), Rb (ab181616, Abcam, Cambridge, UK), Rb phospho T826 (ab133446, Abcam, Cambridge, UK), CDK9 (ab39098, Abcam, Cambridge, UK), and actin (ab1801, Abcam, Cambridge, UK). Images were acquired with an Image Quant LAS4000 device from GE Healthcare Life Sciences. Band intensity quantifications were calculated using ImageJ software, edition 1.53 [27].

[1] = system: CMV promoter in YB5 cells; experiment: DNA methylation by bisulfite pyrosequencing, CMV promoter; type: cell-based, human; conditions: 0.05–50 µM, 72 h
Excerpt: We analyzed DNA methylation levels on the CMV promoter region and LINE-1 repeated elements (as a marker of global DNA methylation level). After DNA extraction and bisulfite conversion, PCR amplification of regions of interest and pyrosequencing were achieved as previously described.

Question: With `N#Cc1cn([C@@H]2O[C@H](CO)[C@@H](O)[C@H]2O)c2ncnc(N)c12` [toyocamycin, 7-Deaza-7-cyanoadenosine] as the compound, how does the “RNA-Pol II ser 2 phosphorylation” value (RNA-Pol II Ser2-P; HCT116, 350–500 nM) read?
Answer: The value was “significantly reduced”.

Question: And the “RNA Pol II band intensity, Pol II C-terminal antibody” value (RNA-Pol II Ser2-P; HCT116, above 350 nM)?
Answer: The value was “reduced the RNA Pol II band intensity”.

Question: What about the “DNA methylation on CMV promoter” value [1] of the same compound?
Answer: Its value is “no changes in DNA methylation”.
